Common to all, as to type: biochemical
What all share (details): compound at 10 µM

For one assay, the target named is HDAC-5 (Homo sapiens, UniProt Q9UQL6). The assay is described as follows: Enzymatic HDAC selectivity panel, HDAC-5. On the procedure: (§1) Enzymatic assays to evaluate HDAC inhibition were performed, and the design involved three steps: (a) Preliminary screening to identify the most promising compounds; (b) Evaluation by a panel of HDAC isoforms to investigate selectivity; and (c) Determination of IC50 values. Firstly, compounds (4–7; 15–26) were evaluated at 10 µM against HDAC-1 and HDAC-2 (Table 2).
Sequence of HDAC-5 (Q9UQL6 whole entry, canonical isoform): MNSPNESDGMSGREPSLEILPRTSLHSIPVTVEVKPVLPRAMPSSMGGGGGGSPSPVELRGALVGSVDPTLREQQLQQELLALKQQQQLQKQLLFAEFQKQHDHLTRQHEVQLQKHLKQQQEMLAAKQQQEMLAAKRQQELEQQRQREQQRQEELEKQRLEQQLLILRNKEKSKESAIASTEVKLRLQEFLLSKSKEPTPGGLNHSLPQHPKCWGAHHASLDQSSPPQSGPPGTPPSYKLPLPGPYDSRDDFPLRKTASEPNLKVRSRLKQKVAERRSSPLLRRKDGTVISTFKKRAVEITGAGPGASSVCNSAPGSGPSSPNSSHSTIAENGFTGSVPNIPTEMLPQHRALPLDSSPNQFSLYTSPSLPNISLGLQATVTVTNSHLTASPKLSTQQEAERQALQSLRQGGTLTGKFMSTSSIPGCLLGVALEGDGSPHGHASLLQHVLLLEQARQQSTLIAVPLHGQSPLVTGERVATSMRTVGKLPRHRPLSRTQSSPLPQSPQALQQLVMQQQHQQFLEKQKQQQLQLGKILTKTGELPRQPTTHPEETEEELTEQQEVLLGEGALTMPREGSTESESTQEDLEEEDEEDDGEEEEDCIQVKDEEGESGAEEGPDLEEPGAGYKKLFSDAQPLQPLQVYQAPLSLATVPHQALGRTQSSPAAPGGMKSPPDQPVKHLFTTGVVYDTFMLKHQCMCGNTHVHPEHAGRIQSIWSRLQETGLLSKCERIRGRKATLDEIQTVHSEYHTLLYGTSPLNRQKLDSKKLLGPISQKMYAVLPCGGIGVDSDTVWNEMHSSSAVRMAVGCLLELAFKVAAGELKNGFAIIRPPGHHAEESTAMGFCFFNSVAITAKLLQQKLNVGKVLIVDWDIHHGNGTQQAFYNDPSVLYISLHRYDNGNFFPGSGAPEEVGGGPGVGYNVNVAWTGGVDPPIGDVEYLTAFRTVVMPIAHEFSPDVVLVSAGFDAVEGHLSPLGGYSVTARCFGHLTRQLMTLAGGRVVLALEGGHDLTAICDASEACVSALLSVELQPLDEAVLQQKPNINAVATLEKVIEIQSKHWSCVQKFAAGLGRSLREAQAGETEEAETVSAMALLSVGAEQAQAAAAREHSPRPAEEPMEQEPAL
(§2) The enzymatic assay to evaluate HDAC inhibitory effects for all final compounds against the distinct isoforms was carried out in accordance with the previously described procedures (Lopes et al., 2021). All compounds were initially screened at 10 µM against HDAC-1 and HDAC-2. […] All the compounds were dissolved in DMSO. A serial dilution of the compounds was performed in 100% DMSO with the highest concentration at 1 mM. Each intermediate compound dilution (in 100% DMSO) was diluted 10x in assay buffer to form a 10% DMSO intermediate dilution in HDAC assay buffer. 5 µL of this dilution was added to a 50 µL reaction to bring the final concentration of DMSO to 1% in all the reactions. […] The fluorescence intensity was measured at an excitation of 360 nm and emission of 460 nm using a Tecan Infinite M1000 microplate reader, and the percentage of activity was calculated using the formula: % activity = (F − Fb)/(Ft − Fb), where F = the intensity of fluorescence in the presence of the compound. […]

The next assay has as its target HDAC-9 (Homo sapiens, UniProt Q9UKV0). The assay is described as follows: Enzymatic HDAC selectivity panel, HDAC-9. On the procedure: as §1, §2
The target of another assay is T1, HDAC-11 (Homo sapiens, UniProt Q96DB2).
T1 sequence (Q96DB2 1-347): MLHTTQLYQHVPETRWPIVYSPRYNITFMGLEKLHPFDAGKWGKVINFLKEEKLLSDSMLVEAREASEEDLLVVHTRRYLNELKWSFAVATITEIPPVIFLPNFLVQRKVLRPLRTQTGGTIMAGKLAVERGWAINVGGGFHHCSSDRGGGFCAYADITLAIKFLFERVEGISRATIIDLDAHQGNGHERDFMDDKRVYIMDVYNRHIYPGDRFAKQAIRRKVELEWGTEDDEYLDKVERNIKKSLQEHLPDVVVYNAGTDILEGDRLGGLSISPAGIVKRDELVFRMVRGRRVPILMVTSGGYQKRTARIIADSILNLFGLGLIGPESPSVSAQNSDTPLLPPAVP
The assay is described as follows: Enzymatic HDAC selectivity panel, HDAC-11. On the procedure: as §1, §2

Sequence of HDAC-9 (Q9UKV0 whole entry): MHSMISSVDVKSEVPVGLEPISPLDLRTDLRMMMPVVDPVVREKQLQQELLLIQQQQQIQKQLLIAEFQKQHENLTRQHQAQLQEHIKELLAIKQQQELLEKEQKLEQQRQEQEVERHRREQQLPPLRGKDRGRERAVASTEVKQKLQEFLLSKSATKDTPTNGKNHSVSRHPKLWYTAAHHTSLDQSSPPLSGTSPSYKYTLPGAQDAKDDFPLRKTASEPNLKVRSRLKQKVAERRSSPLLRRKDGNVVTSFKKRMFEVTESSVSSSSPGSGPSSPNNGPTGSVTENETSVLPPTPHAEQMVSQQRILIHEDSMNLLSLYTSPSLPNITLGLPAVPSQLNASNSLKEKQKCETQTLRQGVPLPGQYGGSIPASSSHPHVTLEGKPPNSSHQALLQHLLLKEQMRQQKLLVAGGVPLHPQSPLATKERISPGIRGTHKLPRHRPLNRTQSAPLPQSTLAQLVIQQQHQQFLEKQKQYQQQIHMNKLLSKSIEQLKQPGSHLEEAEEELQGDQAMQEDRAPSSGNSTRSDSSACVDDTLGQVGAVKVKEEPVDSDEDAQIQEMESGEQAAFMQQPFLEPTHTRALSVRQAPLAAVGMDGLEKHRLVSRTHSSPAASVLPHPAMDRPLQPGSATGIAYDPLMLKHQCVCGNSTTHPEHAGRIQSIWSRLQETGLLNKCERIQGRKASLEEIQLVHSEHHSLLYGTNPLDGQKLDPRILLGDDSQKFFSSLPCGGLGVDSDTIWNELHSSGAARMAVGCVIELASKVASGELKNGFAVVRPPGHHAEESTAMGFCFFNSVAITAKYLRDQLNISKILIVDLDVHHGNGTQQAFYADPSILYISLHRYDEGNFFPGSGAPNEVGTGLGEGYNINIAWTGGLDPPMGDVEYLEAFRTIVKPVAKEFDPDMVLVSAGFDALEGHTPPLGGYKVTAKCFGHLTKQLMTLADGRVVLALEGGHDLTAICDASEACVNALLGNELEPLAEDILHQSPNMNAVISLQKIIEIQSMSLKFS

As for `Nc1ccc(CCc2ccc(C(=O)Nc3ccccc3N)cc2)cc1` [Compound (5)], the results for the inhibition at 10 µM on HDAC-5, on HDAC-9 and against HDAC-11 were 5 ± 0.5%, 7 ± 0.4% and 15 ± 0.6%, respectively.

A word on the inhibition: it is how much of the control response was suppressed.

These data come from publication PMC9611521, “Optimization of Resveratrol Used as a Scaffold to Design Histone Deacetylase (HDAC-1 and HDAC-2) Inhibitors” (Pharmaceuticals, 2022).
